The record followed here is patent publication US9808448B2, “Pharmaceutical compounds and use of same in cancer and tauopathies” (THE REGENTS OF THE UNIVERSITY OF MICHIGAN, priority 2013, dated 2017).

The subject of the first assay is MEF (C57BL/6). As to the kind of experiment: Cell survival, MEF. The conditions noted are these: Mus musculus; second table; read-out: IC50/μM MEF (C57BL/6). Format: cell-based.
Take `COC(=O)Cn1c(=O)/c(=C2\Sc3ccccc3N2C)s/c1=C\c1scc[n+]1Cc1ccccc1`: the IC50 is > 50 µM.

`CCN1C(=O)/C(=C2\Sc3ccccc3N2C)S/C1=N\c1ccccc1`: the IC50 is > 50 µM.

With `CCN1C(=O)/C(=C2\Sc3cc(C(F)(F)F)ccc3N2C)S/C1=N\c1ccccc1`, the IC50 is > 50 µM.

As for `COC(=O)Cn1c(=O)/c(=C2\Sc3ccccc3N2C)s/c1=C\c1cccc[n+]1C`, the IC50 was > 50 µM.

As for `CCN1C(=O)/C(=C2\Sc3cccc(F)c3N2C)S/C1=N\c1ccccc1`, the IC50 is > 50 µM.

Regarding `CCn1c(=O)/c(=C2\Sc3cc(OC(F)(F)F)ccc3N2C)s/c1=C\c1ccccn1`, the IC50 was > 50 µM.

Consider `CCn1c(=O)/c(=C2\Sc3cc(Cl)ccc3N2C)s/c1=C\c1ccc(C#N)c[n+]1Cc1ccccc1`, for which the IC50 was > 50 µM.

`CCN1C(=O)/C(=C2\Sc3c(F)cccc3N2C)S/C1=N\c1ccccc1`: the IC50 is > 50 µM.

As for `COC(=O)Cn1c(=O)/c(=C2\Sc3ccccc3N2C)s/c1=C\c1nccs1`, the IC50 was > 50 µM.

Take `COC(=O)Cn1c(=O)/c(=C2\Sc3ccccc3N2C)s/c1=C\c1ccccn1`: the IC50 is > 50 µM.

As to `C=CCn1c(=O)/c(=C2\Sc3c(F)cccc3N2C)s/c1=C\c1ccncc1`, the IC50 was > 50 µM.

For the compound `COC(=O)Cn1c(=O)/c(=C2\Sc3cc(C(F)(F)F)ccc3N2C)s/c1=C\c1ccccn1`, the IC50 was > 50 µM.

Consider `CCN1C(=O)/C(=C2\Sc3cc(F)ccc3N2C)S/C1=N\c1ccccc1`, for which the IC50 was > 50 µM.

For `COC(=O)Cn1c(=O)/c(=C2\Sc3cc(C(F)(F)F)ccc3N2C)s/c1=C\c1nccs1`, the IC50 was > 50 µM.

The next assay relates to MDA-MB-231. As to the kind of experiment: Cancer activity screen (MTT cell survival), MDA-MB-231. Format: cell-based. The note with it: Homo sapiens, second table.
As to `COC(=O)Cn1c(=O)/c(=C2\Sc3ccccc3N2C)s/c1=C\c1scc[n+]1Cc1ccccc1`, the IC50 is 0.87 ± 0.14 µM.

In the case of `CCN1C(=O)/C(=C2\Sc3ccccc3N2C)S/C1=N\c1ccccc1`, the IC50 is > 30 µM.

`CCN1C(=O)/C(=C2\Sc3cc(C(F)(F)F)ccc3N2C)S/C1=N\c1ccccc1` had an IC50 of 16.2 ± 1.12 µM.

`COC(=O)Cn1c(=O)/c(=C2\Sc3ccccc3N2C)s/c1=C\c1cccc[n+]1C` showed an IC50 of 16.5 ± 1.05 µM.

As for `CCN1C(=O)/C(=C2\Sc3cccc(F)c3N2C)S/C1=N\c1ccccc1`, the IC50 is > 30 µM.

In turn, `CCn1c(=O)/c(=C2\Sc3cc(OC(F)(F)F)ccc3N2C)s/c1=C\c1ccccn1` displayed an IC50 of 4.4 ± 0.5 µM.

Regarding `CCn1c(=O)/c(=C2\Sc3cc(Cl)ccc3N2C)s/c1=C\c1ccc(C#N)c[n+]1Cc1ccccc1`, the IC50 came out at 1.92 ± 0.16 µM.

As for `CCN1C(=O)/C(=C2\Sc3c(F)cccc3N2C)S/C1=N\c1ccccc1`, the IC50 was determined as 17.7 ± 2.85 µM.

With `COC(=O)Cn1c(=O)/c(=C2\Sc3ccccc3N2C)s/c1=C\c1nccs1`, the IC50 was > 30 µM.

On to `CCn1c(=O)/c(=C2\Sc3ccc(Cl)cc3N2C)s/c1=C\c1scc[n+]1Cc1ccsc1Br`, for which the IC50 amounted to 0.24 ± 0.03 µM.

Compound `C=CCn1c(=O)/c(=C2\Sc3c(F)cccc3N2C)s/c1=C\c1ccncc1` yielded an IC50 of 3.07 ± 0.73 µM.

For `COC(=O)Cn1c(=O)/c(=C2\Sc3cc(C(F)(F)F)ccc3N2C)s/c1=C\c1ccccn1`, the IC50 is > 30 µM.

For the compound `CCN1C(=O)/C(=C2\Sc3cc(F)ccc3N2C)S/C1=N\c1ccccc1`, the IC50 is > 30 µM.

Turning to `CCn1c(=O)/c(=C2\Sc3cc(Cl)ccc3N2C)s/c1=C\c1scc[n+]1C(C)C(=O)c1ccccc1` (centres unmarked), the IC50 worked out at 0.34 ± 0.03 µM.

As for `CCn1c(=O)/c(=C2\Sc3cc(C(F)(F)F)ccc3N2C)s/c1=C\c1scc[n+]1Cc1ccccc1`, the IC50 was 0.36 ± 0.03 µM.

With `COC(=O)Cn1c(=O)/c(=C2\Sc3cc(C(F)(F)F)ccc3N2C)s/c1=C\c1nccs1`, the IC50 was > 30 µM.

Regarding `CN1/C(=c2\s/c(=C\c3ccncc3)n(CC(=O)O)c2=O)Sc2cccc(F)c21`, the IC50 was > 20 µM.

As for `CCn1c(=O)/c(=C2\Sc3cc(C(F)(F)F)ccc3N2C)s/c1=C\c1ccncc1`, the IC50 was > 20 µM.

In turn, `CCn1c(=O)/c(=C2\Sc3cc(Cl)ccc3N2C)s/c1=C\c1scc[n+]1Cc1cc(C)on1` gave an IC50 of 0.22 ± 0.02 µM.

`CCn1c(=O)/c(=C2\Sc3c(ccc(F)c3F)N2C)s/c1=C\c1scc[n+]1Cc1ccccc1` had an IC50 of 0.24 ± 0.01 µM.

In turn, `COC(=O)[C@@H](C)n1c(=O)/c(=C2\Sc3cc(F)ccc3N2C)s/c1=C\c1scc[n+]1Cc1ccccc1` had an IC50 of 1.2 ± 0.14 µM.

As for `CCn1c(=O)/c(=C2\Sc3cc(C(F)(F)F)ccc3N2C)s/c1=C\c1scc[n+]1CC`, the IC50 stood at 4.2 ± 0.6 µM.

With `CCn1c(=O)/c(=C2\Sc3c(ccc(F)c3F)N2C)s/c1=C\c1cccc[n+]1Cc1ccsc1`, the IC50 worked out at 2.09 ± 0.31 µM.

In turn, `CCn1c(=O)/c(=C2\Sc3c(ccc(F)c3F)N2C)s/c1=C\c1cccc[n+]1Cc1ccccc1C(F)(F)F` had an IC50 of 0.38 ± 0.07 µM.
